Test results as given in ChEMBL document CHEMBL4699634, “Series of Novel and Highly Potent Cyclic Peptide PCSK9 Inhibitors Derived from an mRNA Display Screen and Optimized via Structure-Based Design” (J Med Chem, 2020).
Numbered stars: 1 amine (or outer) side, 2 acyl side, 3 side chain; on linkers, the order of the positions; unused ones are H or OH. Bridge positions count the residues as written; N and C are the ends. Square brackets hold non-standard residues; d marks the D form. Peptide text beside a SMILES is read from it. * marks the point of attachment. Trp(5-F) = N[C@@H](Cc1c[nH]c2ccc(F)cc12)C(=O)O; X3 = O=C(CCSCc1cc(F)cc(CSCCN[*:1])c1)[*:2]; Nle(6-COOH) = N[C@@H](CCCCC(=O)O)C(=O)O; X1 = O=C(CCSCc1cccc(CSCCN[*:1])c1)[*:2]; mXylylene = c1cc(C[*:1])cc(C[*:2])c1; Asu = N[C@@H](CCCCCC(=O)O)C(=O)O; PEG4 = NCCOCCOCCOCCOCCC(=O)O; αMeP = C[C@@]1(C(=O)O)CCCN1; Orn = NCCC[C@H](N)C(=O)O; X2 = COCCOCCOCCOCCC(=O)*; Nva = CCC[C@H](N)C(=O)O; Mpa = O=C(O)CCS

Legend:
[1] = Induction of mast cell degranulation in Wistar rat isolated peritoneal cells assessed as effect on histamine release measured after 30 mins; assay type: tissue-based
[2] = Cytotoxicity against Wistar rat isolated peritoneal cells assessed as reduction in cell viability up to 60 uM measured after 30 mins; assay type: cell-based; conditions: peritoneal macrophage cell, 0.5 h
[3] = biological target: Proprotein convertase subtilisin/kexin type 9 (Homo sapiens, UniProt Q8NBP7); assay: Inhibition of AlexaFluor647-tagged cyclic peptide binding to avi-tagged-biotinylated human PCSK9 measured after 2 hrs by Lance Streptavidin Europium based FRET assay
[4] = biological target: Chymotrypsin-like elastase family member 1 (Sus scrofa, UniProt P00772); assay: Enzymatic stability assessed as porcine type 4 pancreatic elastase-mediated compound hydrolysis by measuring parent compound remaining at 100 uM incubated for 1 hr by LC-MS/MS analysis; assay type: ADME; conditions: pig, read-out: Stabilty
[5] = Enzymatic stability assessed as bovine pancreatic trypsin-mediated compound hydrolysis by measuring parent compound remaining at 100 uM incubated for 1 hr by LC-MS/MS analysis; assay type: ADME, Bos taurus; conditions: cattle, read-out: Stabilty
[6] = Half life in C57BL/6 mouse whole blood at 100 uM by LC-MS/MS analysis; assay type: ADME, tissue-based
Chymotrypsinogen A = Chymotrypsinogen A (Bos taurus, UniProt P00766); assay: Enzymatic stability assessed as bovine pancreatic alpha-chymotrypsin-mediated compound hydrolysis by measuring parent compound remaining at 100 uM incubated for 1 hr by LC-MS/MS analysis; assay type: ADME; conditions: cattle, read-out: Stabilty
[7] = Enzymatic stability assessed as porcine pepsin-mediated compound hydrolysis by measuring parent compound remaining at 100 uM incubated for 1 hr by LC-MS/MS analysis; assay type: ADME, Sus scrofa; conditions: pig, read-out: Stabilty
PCSK9/LDLR = PCSK9/LDLR (Homo sapiens, UniProt Q8NBP7); assay: Inhibition of avi-tagged-biotinylated human PCSK9 interaction with His-tagged human LDLR EGFa domain by LANCE Ulight Streptavidin based TR-FRET assay; assay type: protein assay
[8] = Volume of distribution at steady state in C57BL/6 mouse at 1 mg/kg, iv by LC-MS/MS analysis; assay type: ADME, organism-based; conditions: in vivo, read-out: Vdss
[9] = AUC (0 to infinity) in C57BL/6 mouse at 1 mg/kg, iv by LC-MS/MS analysis; assay type: ADME, organism-based; parameters: route intravenous, time infinity, dose 1 mg/kg; conditions: mouse, in vivo
[10] = Protein binding in mouse plasma at 2.5 uM measured after 4 hrs by equilibrium dialysis based LC-MS/MS analysis; assay type: ADME, cell-free; conditions: read-out: PPB (converted)
[11] = Half life in C57BL/6 mouse at 1 mg/kg, iv by LC-MS/MS analysis; assay type: ADME, organism-based; conditions: in vivo
[12] = AUC (0 to X) in C57BL/6 mouse at 1 mg/kg, iv by LC-MS/MS analysis; assay type: ADME, organism-based; parameters: dose 1 mg/kg; conditions: in vivo
[13] = Half life in cynomolgus monkey whole blood at 100 uM by LC-MS/MS analysis; assay type: ADME, tissue-based, Macaca fascicularis
[14] = Rattus norvegicus, Wistar, Mast cell, 0.5 h, read-out: EC50

Chymotrypsin-like elastase family member 1, sequence (P00772 whole entry): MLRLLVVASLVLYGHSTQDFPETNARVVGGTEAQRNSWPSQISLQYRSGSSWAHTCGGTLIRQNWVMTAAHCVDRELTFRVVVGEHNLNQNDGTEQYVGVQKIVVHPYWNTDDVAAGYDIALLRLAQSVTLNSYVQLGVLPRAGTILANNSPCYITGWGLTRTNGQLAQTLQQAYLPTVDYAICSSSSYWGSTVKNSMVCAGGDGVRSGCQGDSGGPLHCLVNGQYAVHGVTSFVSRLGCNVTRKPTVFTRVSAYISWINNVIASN
Proprotein convertase subtilisin/kexin type 9, sequence (Q8NBP7 31-152 limits assumed): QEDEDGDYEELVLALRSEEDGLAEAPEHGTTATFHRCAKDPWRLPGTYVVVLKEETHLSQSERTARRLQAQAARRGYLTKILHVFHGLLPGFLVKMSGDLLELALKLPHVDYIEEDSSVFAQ
Proprotein convertase subtilisin/kexin type 9, sequence (Q8NBP7 153-692 limits assumed): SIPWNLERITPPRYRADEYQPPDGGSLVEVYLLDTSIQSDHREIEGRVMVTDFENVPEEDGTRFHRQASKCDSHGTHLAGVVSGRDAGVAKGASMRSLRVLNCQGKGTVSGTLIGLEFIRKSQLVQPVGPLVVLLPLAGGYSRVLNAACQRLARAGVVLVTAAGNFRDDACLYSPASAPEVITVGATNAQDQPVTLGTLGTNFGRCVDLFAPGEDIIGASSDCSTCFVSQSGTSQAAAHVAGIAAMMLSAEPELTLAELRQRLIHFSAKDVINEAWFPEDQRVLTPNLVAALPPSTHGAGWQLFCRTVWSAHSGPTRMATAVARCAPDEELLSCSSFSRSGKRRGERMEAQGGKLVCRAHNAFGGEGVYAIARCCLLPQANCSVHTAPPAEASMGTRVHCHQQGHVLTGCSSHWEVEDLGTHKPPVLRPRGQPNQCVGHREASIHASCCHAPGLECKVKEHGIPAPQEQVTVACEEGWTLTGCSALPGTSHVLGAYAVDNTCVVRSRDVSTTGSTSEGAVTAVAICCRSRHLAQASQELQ
PCSK9/LDLR, sequence (Q8NBP7 31-152 limits assumed): as the sequence (Q8NBP7 31-152 limits assumed) above
PCSK9/LDLR, sequence (Q8NBP7 153-692 limits assumed): as the sequence (Q8NBP7 153-692 limits assumed) above
PCSK9/LDLR, sequence (P01130 22-860 partner limits assumed): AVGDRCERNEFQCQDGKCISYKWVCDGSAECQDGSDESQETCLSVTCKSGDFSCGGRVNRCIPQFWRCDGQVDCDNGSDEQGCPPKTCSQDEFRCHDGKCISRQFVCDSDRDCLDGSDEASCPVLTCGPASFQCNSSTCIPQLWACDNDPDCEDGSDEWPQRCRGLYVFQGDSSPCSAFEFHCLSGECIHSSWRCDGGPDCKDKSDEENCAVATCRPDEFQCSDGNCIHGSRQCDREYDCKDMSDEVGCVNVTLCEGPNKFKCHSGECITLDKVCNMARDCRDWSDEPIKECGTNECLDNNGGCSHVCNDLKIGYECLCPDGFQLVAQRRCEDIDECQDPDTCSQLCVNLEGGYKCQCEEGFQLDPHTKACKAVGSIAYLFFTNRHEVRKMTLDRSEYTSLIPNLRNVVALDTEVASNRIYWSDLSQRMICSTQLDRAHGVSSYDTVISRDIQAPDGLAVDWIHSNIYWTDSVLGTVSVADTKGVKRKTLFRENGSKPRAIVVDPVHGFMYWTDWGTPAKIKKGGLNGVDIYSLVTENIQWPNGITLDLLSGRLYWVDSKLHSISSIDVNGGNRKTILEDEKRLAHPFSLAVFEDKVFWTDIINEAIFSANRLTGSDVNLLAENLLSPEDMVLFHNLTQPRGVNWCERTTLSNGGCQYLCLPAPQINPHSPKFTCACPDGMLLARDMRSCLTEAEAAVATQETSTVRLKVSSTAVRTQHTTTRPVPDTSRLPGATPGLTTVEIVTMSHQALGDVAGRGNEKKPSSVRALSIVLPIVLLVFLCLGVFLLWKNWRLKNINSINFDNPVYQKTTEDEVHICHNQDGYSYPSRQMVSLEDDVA

Compound | Activity [2] | Ki [3] | EC50 ([1]; mast cell) | remaining at 1 h, 100 µM [4] | remaining at 1 h, 100 µM [5] | half-life at 100 µM [6] | remaining at 1 h, 100 µM (Chymotrypsinogen A) | remaining at 1 h, 100 µM [7] | also measured
COc1ccc(C[C@@H]2NC(=O)[C@H](Cc3cnc[nH]3)NC(=O)[C@H](CC(=O)O)NC(=O)[C@H](Cc3c[nH]c4ccc(F)cc34)NC(=O)[C@H](Cc3c[nH]c4ccc(F)cc34)NC(=O)[C@@H](C)NC(=O)[C@H](CCCCN(C)C)NC(=O)CCSCc3cccc(c3)CSCCNC(=O)[C@]3(C)CCCN3C2=O)cc1 | Non-Toxic | 4.2 nM |  |  |  |  |  |  | EC50 [1, 14]: 10000 nM
COc1ccc(C[C@@H]2NC(=O)[C@H](Cc3cnc[nH]3)NC(=O)[C@H](CC(=O)O)NC(=O)[C@H](Cc3c[nH]c4ccc(F)cc34)NC(=O)[C@H](Cc3c[nH]c4ccc(F)cc34)NC(=O)[C@@H](C)NC(=O)[C@H](CCCCC(=O)O)NC(=O)CCSCc3cccc(c3)CSCCNC(=O)[C@]3(C)CCCN3C2=O)cc1 (cyclo(DHY(Me)[αMeP][X1][Nle(6-COOH)][dA][Trp(5-F)][Trp(5-F)])) | Non-Toxic | 85.8 nM | Non-Toxic |  |  |  |  |  | 
COc1ccc(C[C@@H]2NC(=O)[C@H](Cc3cnc[nH]3)NC(=O)[C@H](CC(=O)O)NC(=O)[C@H](Cc3c[nH]c4ccc(F)cc34)NC(=O)[C@H](Cc3c[nH]c4ccc(F)cc34)NC(=O)[C@@H](C)NC(=O)[C@H](CNC(=O)COCCOCCN)NC(=O)CCSCc3cccc(c3)CSCCNC(=O)[C@]3(C)CCCN3C2=O)cc1 | Non-Toxic | 8.2 nM | Non-Toxic |  |  |  |  |  | 
COCCOCCOCCOCCC(=O)NCCCC[C@@H]1NC(=O)CCSCc2cccc(c2)CSC[C@@H](C(N)=O)NC(=O)[C@]2(C)CCCN2C(=O)[C@H](Cc2ccc(O)cc2)NC(=O)[C@H](Cc2cnc[nH]2)NC(=O)[C@H](CC(=O)O)NC(=O)[C@H](Cc2c[nH]c3ccc(F)cc23)NC(=O)[C@H](Cc2c[nH]c3ccc(F)cc23)NC(=O)CNC1=O ([Mpa]K(X2)G[Trp(5-F)][Trp(5-F)]DHY[αMeP]C-NH2; linker 1-10 via mXylylene) | Non-Toxic | 9.4 nM | Non-Toxic | 96.3% | 96% | > 6 h | 39.5% | 98.6% | 
COc1ccc(C[C@@H]2NC(=O)[C@H](Cc3cnc[nH]3)NC(=O)[C@H](CC(=O)O)NC(=O)[C@H](Cc3c[nH]c4ccc(F)cc34)NC(=O)[C@H](Cc3c[nH]c4ccc(F)cc34)NC(=O)[C@@H](C)NC(=O)[C@H](CCCCO)NC(=O)CCSCc3cccc(c3)CSCCNC(=O)[C@]3(C)CCCN3C2=O)cc1 | Non-Toxic | 39 nM | Non-Toxic |  |  |  |  |  | Ki (PCSK9/LDLR): 78.9 nM
C[C@H]1NC(=O)[C@H](CCCCN)NC(=O)CCSCc2cccc(c2)CSC[C@@H](C(N)=O)NC(=O)[C@]2(C)CCCN2C(=O)[C@H](Cc2ccc(O)cc2)NC(=O)[C@H]([C@@H](C)O)NC(=O)[C@@H]2C[C@H](F)CN2C(=O)[C@H](Cc2c[nH]c3ccc(F)cc23)NC(=O)[C@H](Cc2c[nH]c3ccc(F)cc23)NC1=O | Non-Toxic | 2.1 nM |  | 100% | 95.9% | > 6 h | 100% | 98.1% | Vd [8]: 0.37 L/kg; AUC [9]: 0.17152 µM·h; EC50 [1, 14]: 3120 nM; fraction unbound at 4 h, 2.5 µM [10]: 0.0167; half-life [11]: 1.6 h; AUC [12]: 0.171 µM·h
COc1ccc(C[C@@H]2NC(=O)[C@H]([C@@H](C)OC)NC(=O)[C@@H]3CCC(=O)NCc4cccc(c4)C[C@H](NC(=O)[C@@H](C)NC(=O)[C@H](C)NC(=O)CCSCc4cccc(c4)CSCCNC(=O)[C@]4(C)CCCN4C2=O)C(=O)N[C@@H](Cc2c[nH]c4ccc(F)cc24)C(=O)N3C)cc1 |  | 10.6 nM |  | 98.8% | 97.6% | > 6 h | 95.7% | 94.4% | half-life at 100 µM [13]: > 6 h
CCC[C@@H]1NC(=O)CCSCc2cccc(c2)CSC[C@@H](C(N)=O)NC(=O)[C@]2(C)CCCN2C(=O)[C@H](Cc2ccc(O)cc2)NC(=O)[C@H](Cc2cnc[nH]2)NC(=O)[C@H](CC(=O)O)NC(=O)[C@H](Cc2c[nH]c3ccc(F)cc23)NC(=O)[C@H](Cc2c[nH]c3ccc(F)cc23)NC(=O)CNC1=O ([Mpa][Nva]G[Trp(5-F)][Trp(5-F)]DHY[αMeP]C-NH2; linker 1-10 via mXylylene) | Non-Toxic | 35.2 nM |  |  |  |  |  |  | Ki (PCSK9/LDLR): 94.7 nM; EC50 [1, 14]: 7000 nM
C[C@@]12CCCN1C(=O)[C@H](Cc1ccc(O)cc1)NC(=O)[C@H](Cc1cnc[nH]1)NC(=O)[C@H](CC(=O)O)NC(=O)[C@H](Cc1c[nH]c3ccc(F)cc13)NC(=O)[C@H](Cc1c[nH]c3ccc(F)cc13)NC(=O)CNC(=O)[C@H](CCCN)NC(=O)CCSCc1cccc(c1)CSC[C@@H](C(N)=O)NC2=O ([Mpa][Orn]G[Trp(5-F)][Trp(5-F)]DHY[αMeP]C-NH2; linker 1-10 via mXylylene) | Non-Toxic | 14.3 nM | Non-Toxic |  |  |  |  |  | Ki (PCSK9/LDLR): 132 nM
CO[C@H](C)[C@@H]1NC(=O)[C@@H]2CCCN2C(=O)[C@H](Cc2c[nH]c3ccc(F)cc23)NC(=O)[C@H](Cc2c[nH]c3ccc(F)cc23)NC(=O)CNC(=O)[C@H](CCCCN)NC(=O)CCSCc2cccc(c2)CSC[C@@H](C(N)=O)NC(=O)[C@]2(C)CCCN2C(=O)[C@H](Cc2ccc(O)cc2)NC1=O ([Mpa]KG[Trp(5-F)][Trp(5-F)]PT(Me)Y[αMeP]C-NH2; linker 1-10 via mXylylene) |  | 10.1 nM |  | 56% | 1.2% | 1.03 h | 91% | 99.5% | half-life at 100 µM [13]: 3.1 h
C[C@H]1NC(=O)[C@H](CCCCN)NC(=O)CCSCc2cc(F)cc(c2)CSCCNC(=O)[C@]2(C)CCCN2C(=O)[C@H](Cc2ccc(O)cc2)NC(=O)[C@H](Cc2cnc[nH]2)NC(=O)[C@H](CC(=O)O)NC(=O)[C@H](Cc2c[nH]c3ccc(F)cc23)NC(=O)[C@H](Cc2c[nH]c3ccc(F)cc23)NC1=O (cyclo(DHY[αMeP][X3]K[dA][Trp(5-F)][Trp(5-F)])) |  | 1.5 nM |  | 96.5% | 91% | > 6 h | 20.1% | 96.6% | half-life at 100 µM [13]: > 6 h
C[C@@]12CCCN1C(=O)[C@H](Cc1ccc(O)cc1)NC(=O)[C@H](Cc1cnc[nH]1)NC(=O)[C@H](CC(=O)O)NC(=O)[C@H](Cc1c[nH]c3ccc(F)cc13)NC(=O)[C@H](Cc1c[nH]c3ccc(F)cc13)NC(=O)CNC(=O)[C@H](CCCCNC(=O)CCOCCOCCOCCOCCN)NC(=O)CCSCc1cccc(c1)CSC[C@@H](C(N)=O)NC2=O ([Mpa]K(PEG4)G[Trp(5-F)][Trp(5-F)]DHY[αMeP]C-NH2; linker 1-10 via mXylylene) | Non-Toxic | 10.7 nM | Non-Toxic |  |  |  |  |  | 
COc1ccc(C[C@@H]2NC(=O)[C@H](Cc3cnc[nH]3)NC(=O)[C@H](CC(=O)O)NC(=O)[C@H](Cc3c[nH]c4ccc(F)cc34)NC(=O)[C@H](Cc3c[nH]c4ccc(F)cc34)NC(=O)[C@@H](C)NC(=O)[C@H](CCCCCC(=O)O)NC(=O)CCSCc3cccc(c3)CSCCNC(=O)[C@]3(C)CCCN3C2=O)cc1 (cyclo([Asu][dA][Trp(5-F)][Trp(5-F)]DHY(Me)[αMeP][X1])) | Non-Toxic | 80.7 nM | Non-Toxic |  |  |  |  |  | 
